These results are taken from ChEMBL document CHEMBL1944551, “An integrated computational workflow for efficient and quantitative modeling of renin inhibitors” (Bioorg Med Chem, 2012).

This series can be described thus: physchem. The note with it: octanol/buffer.
For the compound `CCNCc1ccc(Cl)c(CN(C(=O)[C@H]2CNCC(=O)N2c2cnc(OCCCOCc3ccccc3OC)nc2)C2CC2)c1`, the logP was found to be 3.21. The result for `CCNCc1ccc(Cl)c(CN(C(=O)[C@H]2CNCC(=O)N2c2ccc(CCCOc3cccc(Cl)c3)cc2)C2CC2)c1` reads 6.06; that for `CCNCc1ccc(Cl)c(CN(C(=O)[C@H]2CNCC(=O)N2c2ccc(CCCOc3c(F)ccc(F)c3F)cc2)C2CC2)c1`, 5.89; that for `CCNCCc1ccc(Cl)c(CN(C(=O)[C@H]2CNCC(=O)N2c2ccc(OCCOc3c(Cl)cc(C)cc3Cl)cc2)C2CC2)c1`, 6.08. In the case of `CCNCCc1ccc(Cl)c(CN(C(=O)[C@H]2CNCC(=O)N2c2ccc(OCCOc3c(Cl)cc(C)cc3Cl)nc2)C2CC2)c1` it was 5.25; in that of `CCNCCc1ccc(Cl)c(CN(C(=O)[C@H]2CNCC(=O)N2c2ccc(COC(=O)c3ccccc3)cc2)C2CC2)c1`, 4.98; in that of `CCNCCc1ccc(Cl)c(CN(C(=O)[C@H]2CNCC(=O)N2c2ccc(OCCCOCc3ccccc3)cc2)C2CC2)c1`, 5.35.

Turning to `CCNCCc1ccc(Cl)c(CN(C(=O)[C@H]2CNCC(=O)N2c2ccc(OCCCOCc3ccccc3OC)cc2)C2CC2)c1`, the log partition coefficient (logP) is 5.31. The logP values of the last two compounds are within 0.2 log units of each other.

With `CCNCCc1ccc(Cl)c(CN(C(=O)[C@H]2CNCC(=O)N2c2cnc(OCCCOCc3ccccc3OC)nc2)C2CC2)c1`, the logP is 3.3.

As for `CCNCCc1ccc(Cl)c(CN(C(=O)[C@H]2CNCC(=O)N2c2ccc(CCCOc3cccc(Cl)c3)cc2)C2CC2)c1`, the lipophilicity (logP) came to 6.15.

Compound `CC(=O)NCCc1ccc(Cl)c(CN(C(=O)[C@H]2CNCC(=O)N2c2ccc(COC(=O)c3ccccc3)cc2)C2CC2)c1` showed a log partition coefficient (logP) of 4.28. In the case of `CC(=O)NCCc1ccc(Cl)c(CN(C(=O)[C@H]2CNCC(=O)N2c2ccc(OCCCOCc3ccccc3)cc2)C2CC2)c1` it was 4.66; in that of `COc1ccccc1COCCCOc1ccc(N2C(=O)CNC[C@@H]2C(=O)N(Cc2cc(CCNC(C)=O)ccc2Cl)C2CC2)cc1`, 4.61.

As to `COc1ccccc1COCCCOc1ncc(N2C(=O)CNC[C@@H]2C(=O)N(Cc2cc(CCNC(C)=O)ccc2Cl)C2CC2)cn1`, the logP is 2.6.

With `CC(=O)NCCc1ccc(Cl)c(CN(C(=O)[C@H]2CNCC(=O)N2c2ccc(CCCOc3cccc(Cl)c3)cc2)C2CC2)c1`, the logP stood at 5.45. The result for `CC(=O)NCCc1ccc(Cl)c(CN(C(=O)[C@H]2CNCC(=O)N2c2ccc(CCCOc3c(F)ccc(F)c3F)cc2)C2CC2)c1` reads 5.28.

With `CCNCCc1ccc(Cl)c(CN(C(=O)[C@H]2CNCC(=O)N2c2ccc(CCCOc3c(F)ccc(F)c3F)cc2)C2CC2)c1`, the logP turned out to be 5.97. The result for `Cc1cc(Cl)c(OCCOc2ccc(N3C(=O)CNC[C@@H]3C(=O)N(Cc3cc(CCNCC(F)F)ccc3Cl)C3CC3)cc2)c(Cl)c1` reads 6.15; that for `Cc1cc(Cl)c(OCCOc2ccc(N3C(=O)CNC[C@@H]3C(=O)N(Cc3cc(CCNCC(F)F)ccc3Cl)C3CC3)cn2)c(Cl)c1`, 5.33.

For `O=C(OCc1ccc(N2C(=O)CNC[C@@H]2C(=O)N(Cc2cc(CCNCC(F)F)ccc2Cl)C2CC2)cc1)c1ccccc1`, the logP came out at 5.05. Regarding `O=C([C@H]1CNCC(=O)N1c1ccc(OCCCOCc2ccccc2)cc1)N(Cc1cc(CCNCC(F)F)ccc1Cl)C1CC1`, the log partition coefficient (logP) came to 5.43. For the compound `COc1ccccc1COCCCOc1ccc(N2C(=O)CNC[C@@H]2C(=O)N(Cc2cc(CCNCC(F)F)ccc2Cl)C2CC2)cc1`, the logP is 5.38.

As to `COc1ccccc1COCCCOc1ncc(N2C(=O)CNC[C@@H]2C(=O)N(Cc2cc(CCNCC(F)F)ccc2Cl)C2CC2)cn1`, the log partition coefficient (logP) was found to be 3.37. In the case of `O=C([C@H]1CNCC(=O)N1c1ccc(CCCOc2cccc(Cl)c2)cc1)N(Cc1cc(CCNCC(F)F)ccc1Cl)C1CC1` it was 6.22. In the case of `O=C([C@H]1CNCC(=O)N1c1ccc(CCCOc2c(F)ccc(F)c2F)cc1)N(Cc1cc(CCNCC(F)F)ccc1Cl)C1CC1` it was 6.05; in that of `Cc1cc(Cl)c(OCCOc2ccc(N3C(=O)CNC[C@@H]3C(=O)N(Cc3cc(CNCCF)ccc3Cl)C3CC3)cc2)c(Cl)c1`, 5.77. As for `Cc1cc(Cl)c(OCCOc2ccc(N3C(=O)CNC[C@@H]3C(=O)N(Cc3cc(CNCCF)ccc3Cl)C3CC3)cn2)c(Cl)c1`, the log partition coefficient (logP) was 4.94. In the case of `CNC(=O)CCc1ccc(Cl)c(CN(C(=O)[C@H]2CNCC(=O)N2c2ccc(OCCOc3c(Cl)cc(C)cc3Cl)cc2)C2CC2)c1` it was 5.34; in that of `CNC(=O)CCc1ccc(Cl)c(CN(C(=O)[C@H]2CNCC(=O)N2c2ccc(OCCOc3c(Cl)cc(C)cc3Cl)nc2)C2CC2)c1`, 4.52; in that of `O=C(OCc1ccc(N2C(=O)CNC[C@@H]2C(=O)N(Cc2cc(CNCCF)ccc2Cl)C2CC2)cc1)c1ccccc1`, 4.66.

`O=C([C@H]1CNCC(=O)N1c1ccc(OCCCOCc2ccccc2)cc1)N(Cc1cc(CNCCF)ccc1Cl)C1CC1` yielded a logP of 5.04.

Compound `COc1ccccc1COCCCOc1ccc(N2C(=O)CNC[C@@H]2C(=O)N(Cc2cc(CNCCF)ccc2Cl)C2CC2)cc1` showed a logP of 4.99. `COc1ccccc1COCCCOc1ncc(N2C(=O)CNC[C@@H]2C(=O)N(Cc2cc(CNCCF)ccc2Cl)C2CC2)cn1` had a log partition coefficient (logP) of 2.98. In the case of `O=C([C@H]1CNCC(=O)N1c1ccc(CCCOc2cccc(Cl)c2)cc1)N(Cc1cc(CNCCF)ccc1Cl)C1CC1` it was 5.84; in that of `O=C([C@H]1CNCC(=O)N1c1ccc(CCCOc2c(F)ccc(F)c2F)cc1)N(Cc1cc(CNCCF)ccc1Cl)C1CC1`, 5.66; in that of `Cc1cc(Cl)c(OCCOc2ccc(N3C(=O)CNC[C@@H]3C(=O)N(Cc3cc(CNCC(F)F)ccc3Cl)C3CC3)cc2)c(Cl)c1`, 6.07. In the case of `Cc1cc(Cl)c(OCCOc2ccc(N3C(=O)CNC[C@@H]3C(=O)N(Cc3cc(CNCC(F)F)ccc3Cl)C3CC3)cn2)c(Cl)c1` it was 5.24; in that of `O=C(OCc1ccc(N2C(=O)CNC[C@@H]2C(=O)N(Cc2cc(CNCC(F)F)ccc2Cl)C2CC2)cc1)c1ccccc1`, 4.96; in that of `O=C([C@H]1CNCC(=O)N1c1ccc(OCCCOCc2ccccc2)cc1)N(Cc1cc(CNCC(F)F)ccc1Cl)C1CC1`, 5.34. In the case of `COc1ccccc1COCCCOc1ccc(N2C(=O)CNC[C@@H]2C(=O)N(Cc2cc(CNCC(F)F)ccc2Cl)C2CC2)cc1` it was 5.29; in that of `COc1ccccc1COCCCOc1ncc(N2C(=O)CNC[C@@H]2C(=O)N(Cc2cc(CNCC(F)F)ccc2Cl)C2CC2)cn1`, 3.28; in that of `O=C([C@H]1CNCC(=O)N1c1ccc(CCCOc2cccc(Cl)c2)cc1)N(Cc1cc(CNCC(F)F)ccc1Cl)C1CC1`, 6.14. In the case of `O=C([C@H]1CNCC(=O)N1c1ccc(CCCOc2c(F)ccc(F)c2F)cc1)N(Cc1cc(CNCC(F)F)ccc1Cl)C1CC1`, the logP amounted to 5.96.

Turning to `CC(=O)NCCc1ccc(Cl)c(CN(C(=O)[C@H]2CNCC(=O)N2c2ccc(OCCOc3c(Cl)cc(C)cc3Cl)cc2)C2CC2)c1`, the logP came to 5.38. The compound `CC(=O)NCCc1ccc(Cl)c(CN(C(=O)[C@H]2CNCC(=O)N2c2ccc(OCCOc3c(Cl)cc(C)cc3Cl)nc2)C2CC2)c1` had a lipophilicity (logP) of 4.55. In the case of `Cc1ccccc1Cc1c(C(=O)N2CCNCC2)c2ccccc2n1-c1ccsc1` it was 5.02. The compound `COCCc1ccc(Cl)c(CN(C(=O)[C@H]2CNCC(=O)N2c2ccc(OCCOc3c(Cl)cc(C)cc3Cl)cc2)C2CC2)c1` yielded a logP of 6.05. For `COCCc1ccc(Cl)c(CN(C(=O)[C@H]2CNCC(=O)N2c2ccc(OCCOc3c(Cl)cc(C)cc3Cl)nc2)C2CC2)c1`, the lipophilicity (logP) is 5.22. In the case of `COCCc1ccc(Cl)c(CN(C(=O)[C@H]2CNCC(=O)N2c2ccc(COC(=O)c3ccccc3)cc2)C2CC2)c1` it was 4.95. The result for `COCCc1ccc(Cl)c(CN(C(=O)[C@H]2CNCC(=O)N2c2ccc(OCCCOCc3ccccc3)cc2)C2CC2)c1` reads 5.32; that for `COCCc1ccc(Cl)c(CN(C(=O)[C@H]2CNCC(=O)N2c2ccc(OCCCOCc3ccccc3OC)cc2)C2CC2)c1`, 5.27; that for `COCCc1ccc(Cl)c(CN(C(=O)[C@@H]2CNCC(=O)N2c2cnc(OCCCOCc3ccccc3OC)nc2)C2CC2)c1`, 3.26.

The compound `COCCc1ccc(Cl)c(CN(C(=O)[C@H]2CNCC(=O)N2c2ccc(CCCOc3cccc(Cl)c3)cc2)C2CC2)c1` returned a lipophilicity (logP) of 6.12. In the case of `COCCc1ccc(Cl)c(CN(C(=O)[C@H]2CNCC(=O)N2c2ccc(CCCOc3c(F)ccc(F)c3F)cc2)C2CC2)c1` it was 5.94.

For `CNCc1ccc(Cl)c(CN(C(=O)[C@H]2CNCC(=O)N2c2ccc(OCCOc3c(Cl)cc(C)cc3Cl)cc2)C2CC2)c1`, the log partition coefficient (logP) came out at 5.65. `CNCc1ccc(Cl)c(CN(C(=O)[C@H]2CNCC(=O)N2c2ccc(OCCOc3c(Cl)cc(C)cc3Cl)nc2)C2CC2)c1`: the logP was 4.82. The result for `CNCc1ccc(Cl)c(CN(C(=O)[C@H]2CNCC(=O)N2c2ccc(COC(=O)c3ccccc3)cc2)C2CC2)c1` reads 4.55; that for `CNCc1ccc(Cl)c(CN(C(=O)[C@H]2CNCC(=O)N2c2ccc(OCCCOCc3ccccc3)cc2)C2CC2)c1`, 4.92; that for `CNCc1ccc(Cl)c(CN(C(=O)[C@H]2CNCC(=O)N2c2ccc(OCCCOCc3ccccc3OC)cc2)C2CC2)c1`, 4.88. In the case of `CNCc1ccc(Cl)c(CN(C(=O)[C@@H]2CNCC(=O)N2c2cnc(OCCCOCc3ccccc3OC)nc2)C2CC2)c1`, the logP was 2.87. In the case of `CNCc1ccc(Cl)c(CN(C(=O)[C@H]2CNCC(=O)N2c2ccc(CCCOc3cccc(Cl)c3)cc2)C2CC2)c1` it was 5.72; in that of `CNCc1ccc(Cl)c(CN(C(=O)[C@H]2CNCC(=O)N2c2ccc(CCCOc3c(F)ccc(F)c3F)cc2)C2CC2)c1`, 5.55.

In turn, `CCNCc1ccc(Cl)c(CN(C(=O)[C@H]2CNCC(=O)N2c2ccc(OCCOc3c(Cl)cc(C)cc3Cl)cc2)C2CC2)c1` came in with a log partition coefficient (logP) of 5.99. In the case of `CCNCc1ccc(Cl)c(CN(C(=O)[C@H]2CNCC(=O)N2c2ccc(OCCOc3c(Cl)cc(C)cc3Cl)nc2)C2CC2)c1` it was 5.16; in that of `CCNCc1ccc(Cl)c(CN(C(=O)[C@H]2CNCC(=O)N2c2ccc(COC(=O)c3ccccc3)cc2)C2CC2)c1`, 4.89; in that of `CCNCc1ccc(Cl)c(CN(C(=O)[C@H]2CNCC(=O)N2c2ccc(OCCCOCc3ccccc3)cc2)C2CC2)c1`, 5.26. `CCNCc1ccc(Cl)c(CN(C(=O)[C@H]2CNCC(=O)N2c2ccc(OCCCOCc3ccccc3OC)cc2)C2CC2)c1` yielded a logP of 5.22.
